Among the test systems are U-251; SK-MEL-2; SK-OV-3; TK-10; SR; SK-MEL-28; NCI-H226; CAKI-1; Malme-3M; UACC-257; MOLT-4; HCT-15; SNB-75; HCT-116; PC-3; K562; UACC-62; NCI-H460; A498; CCRF-CEM.
Common to all, as to assay: NCI tumour cell line growth inhibition, 48 h

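In this assay, cells in 96-well plates receive the compound at five concentrations for 48 hours. Endpoints are linearly interpolated between the surrounding concentrations. The concentration for 50% growth inhibition is given as GI50.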 The source made the active and inactive calls. Rule as the data show it: active = GI50 up to about 1.1 µM and inactive = higher. Bounds are passed on as bounds.

In the case of `COc1cc(C2SCC(=O)N2c2ccc(Oc3ccc(Cl)cc3)c(Cl)c2)cc(OC)c1OC` (stereo not given), the GI50 was 39.5 µM (inactive) in the assay on U-251; 17.1 µM (inactive) in the assay with SK-MEL-2; 17.1 µM (inactive) with SK-OV-3; 17.6 µM (inactive) in the assay on TK-10; 22 µM (inactive) in the assay with SR; 16.6 µM (inactive) in the assay with SK-MEL-28. In addition, the GI50 is 15.8 µM (inactive) with NCI-H226; 16.9 µM (inactive) with CAKI-1; 19.8 µM (inactive) in the assay on Malme-3M; 18.1 µM (inactive) in the assay with UACC-257; 8.04 µM (inactive) in the assay with MOLT-4; 26.2 µM in the assay on HCT-15. The GI50 with SNB-75 was 17.2 µM (inactive); with HCT-116 it was 18.7 µM (inactive); in the assay on PC-3, 15.4 µM (inactive); with K562, 33.4 µM (inactive); in the assay on UACC-62, 16 µM (inactive); in the assay on NCI-H460 it was 43.4 µM (inactive).
For the compound `COc1ccc(-c2csc(Cc3nc4c(Br)cc(Br)cc4c(=O)n3-c3ccc(OC)cc3)n2)cc1`, the GI50 with U-251 was 30.3 µM (inactive); in the assay with SK-MEL-2, 48 µM (inactive); with SK-OV-3, 51.8 µM (inactive); with TK-10 it was 56.6 µM (inactive); in the assay with SK-MEL-28 it was 24.3 µM (inactive); with NCI-H226, > 100 µM (inactive). In addition, the GI50 with CAKI-1 is 94.4 µM (inactive); in the assay with A498, 45.3 µM (inactive); in the assay with UACC-257 it was > 100 µM (inactive); with CCRF-CEM, < 0.01 µM (active); in the assay with MOLT-4, 25.5 µM (inactive); in the assay with HCT-15, 24 µM. Besides, the GI50 was > 100 µM (inactive) in the assay with SNB-75; 30.4 µM (inactive) with HCT-116; 28.9 µM (inactive) in the assay on PC-3; 0.333 µM (active) with K562; 53.3 µM (inactive) with UACC-62; 54 µM (inactive) in the assay with NCI-H460.
As for `O=C(N[C@@H](c1ccccc1)[C@@H](O)C(=O)OCc1ccc([N+](=O)[O-])cc1)c1ccccc1`, the GI50 in the assay on U-251, in the assay with SK-MEL-2, in the assay with SK-OV-3, with TK-10, in the assay on NCI-H226 and in the assay on CAKI-1 was > 100 µM (inactive) throughout. For the same compound, the GI50 in the assay on Malme-3M is > 100 µM (inactive); in the assay with A498, > 100 µM (inactive); with UACC-257 it was > 100 µM (inactive); with CCRF-CEM it was 67.6 µM (inactive); in the assay with MOLT-4, 25.8 µM (inactive); in the assay on HCT-15, > 100 µM. Besides, the GI50 with SNB-75 was 44.1 µM (inactive); with HCT-116, > 100 µM (inactive); with PC-3, > 100 µM (inactive); in the assay with K562, 51.3 µM (inactive); with UACC-62 it was > 100 µM (inactive); in the assay on NCI-H460, > 100 µM (inactive).
Regarding `CCCCOC(=O)C1CN2C(=NC1(C(F)(F)F)C(F)(F)F)Sc1ccccc12` (stereo not given), the GI50 in the assay on U-251 was 41.4 µM (inactive); in the assay on SK-MEL-2, 34.8 µM (inactive); in the assay with SK-OV-3 it was 78.5 µM (inactive); with TK-10, 30.6 µM (inactive); in the assay on SK-MEL-28, 74.5 µM (inactive); with NCI-H226, 27 µM (inactive). Moreover, the GI50 is > 100 µM (inactive) in the assay on CAKI-1; 53.1 µM (inactive) in the assay on Malme-3M; > 100 µM (inactive) in the assay with A498; 36.1 µM (inactive) in the assay on UACC-257; 30.2 µM (inactive) in the assay with CCRF-CEM; 23 µM (inactive) with MOLT-4. Moreover, the GI50 is 45.6 µM in the assay with HCT-15; 35.1 µM (inactive) in the assay on SNB-75; 33 µM (inactive) with HCT-116; 16.2 µM (inactive) in the assay on PC-3; 12.2 µM (inactive) in the assay with K562; 47.1 µM (inactive) with UACC-62. Besides, in the assay on NCI-H460, the GI50 is 34.9 µM (inactive).
As to `CC(=O)c1c2c(cc3c1CC1(C3)Cc3cc4c(c(C(=O)O)c3C1)CCCC4)CCCC2.CC(N)c1ccccc1` (stereo not given), the GI50 in the assay on U-251 was 26.1 µM (inactive); in the assay on SK-MEL-2 it was 28.1 µM (inactive); in the assay on SK-OV-3, 39.5 µM (inactive); in the assay on TK-10 it was 37.5 µM (inactive); with SR, 20.3 µM (inactive); in the assay on SK-MEL-28 it was 33.4 µM (inactive). Further, the GI50 was 33.4 µM (inactive) in the assay on CAKI-1; 33.4 µM (inactive) in the assay on Malme-3M; 30.9 µM (inactive) in the assay with UACC-257; 31.7 µM (inactive) in the assay on CCRF-CEM; 17.6 µM (inactive) in the assay with MOLT-4; 33.7 µM in the assay with HCT-15. In addition, the GI50 in the assay with SNB-75 is 39.7 µM (inactive); in the assay on HCT-116 it was 25.1 µM (inactive); in the assay on PC-3, 39.7 µM (inactive); in the assay on K562, 36.4 µM (inactive); with UACC-62 it was 30.7 µM (inactive); in the assay on NCI-H460, 20.2 µM (inactive).
For the compound `O=c1c(-c2ccccc2Cl)coc2cc(F)ccc12`, the GI50 with U-251 was 10.2 µM (inactive); with SK-MEL-2 it was 66.4 µM (inactive); in the assay on SK-OV-3 it was 45.2 µM (inactive); with TK-10 it was 47.9 µM (inactive); in the assay with SK-MEL-28, 63.5 µM (inactive); in the assay on NCI-H226, 23.4 µM (inactive). Moreover, the GI50 was 29.1 µM (inactive) in the assay on CAKI-1; 7.67 µM (inactive) in the assay on A498; 23.9 µM (inactive) with UACC-257; 24.3 µM (inactive) in the assay on CCRF-CEM; 22 µM (inactive) in the assay with MOLT-4; 31.8 µM with HCT-15. For the same compound, the GI50 is 17.5 µM (inactive) with SNB-75; 31.8 µM (inactive) with HCT-116; > 100 µM (inactive) in the assay on PC-3; 18.2 µM (inactive) with UACC-62; 37.6 µM (inactive) in the assay with NCI-H460.
For the compound `CCC(C)(C)C1CCC2c3c([nH]c4ccccc34)C3C(=O)N(c4ccc(OC)cc4)C(=O)C3C2C1` (stereo not given), the GI50 was 11.5 µM (inactive) with U-251; 16.7 µM (inactive) in the assay on SK-MEL-2; 31.9 µM (inactive) in the assay with SK-OV-3; 16.7 µM (inactive) with TK-10; 39.8 µM (inactive) with SR; 25.9 µM (inactive) with SK-MEL-28. Also, the GI50 in the assay with NCI-H226 was 16.5 µM (inactive); with CAKI-1, 10.4 µM (inactive); in the assay on Malme-3M, 19.4 µM (inactive); with UACC-257, 34 µM (inactive); in the assay with MOLT-4, 3.62 µM (inactive); in the assay on HCT-15 it was 27.5 µM. Besides, the GI50 in the assay on SNB-75 was 16.2 µM (inactive); in the assay on HCT-116, 9.08 µM (inactive); with PC-3, 9.79 µM (inactive); in the assay on K562, 5.16 µM (inactive); in the assay on UACC-62, 54.7 µM (inactive); with NCI-H460, 7.4 µM (inactive).
As to `C[n+]1c(-c2ccc(/C=N/N=C/c3ccc(-c4cn5ccccc5[n+]4C)cc3)cc2)cn2ccccc21`, the GI50 in the assay with U-251, in the assay with SK-OV-3, with TK-10, in the assay on SR, with SK-MEL-28 and in the assay on UACC-257 was > 100 µM (inactive) each time. The GI50 in the assay with CCRF-CEM was > 100 µM (inactive); with MOLT-4, > 100 µM (inactive); in the assay with HCT-15, > 100 µM; with SNB-75 it was > 100 µM (inactive); in the assay on HCT-116 it was > 100 µM (inactive); in the assay on PC-3 it was > 100 µM (inactive). Also, the GI50 with K562 and with NCI-H460 was > 100 µM (inactive) in each case.

Source of the values: ChEMBL document CHEMBL1201862, “PubChem BioAssay data set” (2004).
